Literature values as cited in article PMC5454779 (Biochemistry, 2011).

Biological target: ssDNA
Details: read-out: Kd of cold shock protein A with ssDNA; single OB-fold; ref [9]

Kd: 6 µM
Substance: cold shock protein A: cold shock protein consisting of a single OB-fold
